This note sets out measurements from US20070213359A1 (ACADIA Pharmaceuticals Inc., priority 2005, published 2007).

Read-outs that look alike come from different tables or passages of the source.

This assay concerns the target Ghrelin receptor (Homo sapiens, UniProt Q92847). The assay can be described thus: Receptor Selection and Amplification Technology (R-SAT) assay. The format is cell-based. Further details: expressed in transfected cells; host or cells: NIH3T3. The conditions noted are these: for IC50: negative logarithm of ligand concentration causing 50% inhibition of constitutive receptor response, transfected NIH3T3 cells, '—' not defined (nd used separately), read-out: RSAT pIC50 (converted); for Emax: read-out: RSAT Eff(%).

The mark [1] stands for this setting: percent inhibition at saturating ligand, normalized to reference ligand Substance P analog = 100%.

Sequence of Ghrelin receptor (Q92847 whole entry): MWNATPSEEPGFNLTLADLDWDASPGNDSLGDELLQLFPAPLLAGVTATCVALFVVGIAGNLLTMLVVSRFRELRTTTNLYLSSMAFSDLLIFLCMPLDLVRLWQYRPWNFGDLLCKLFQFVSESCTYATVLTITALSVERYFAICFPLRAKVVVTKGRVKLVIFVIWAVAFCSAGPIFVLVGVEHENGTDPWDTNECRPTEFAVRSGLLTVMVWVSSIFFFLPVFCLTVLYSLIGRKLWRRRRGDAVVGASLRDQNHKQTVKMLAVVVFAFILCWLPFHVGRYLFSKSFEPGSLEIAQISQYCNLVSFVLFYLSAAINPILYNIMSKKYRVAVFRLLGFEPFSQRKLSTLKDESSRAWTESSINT

For the compound `CCCCC1CCN(CCCn2cc(C(C)=O)c3cccc(Cl)c32)CC1`, the IC50 was 316 nM. For the same compound, the Emax under setting [1] is 80%.

For the compound `CC(=O)c1cn(CCCCN2CCC(c3nc4ccccc4s3)CC2)c2ccccc12`, the IC50 is 398 nM. Moreover, under setting [1], the Emax was found to be 81%.

For the compound `CCCCC1CCN(CCCn2cc(C(=O)CC(C)C)c3ccccc32)CC1`, the IC50 was 398 nM. The Emax under setting [1] stood at 85%.

On to `CCOC(=O)C1CCN(CCCn2cc(C(C)=O)c3cccc(OC)c32)CC1`, for which the IC50 was 398 nM. Besides, the Emax under setting [1] stood at 127%.

In the case of `O=C(c1cn(CCCN2CCC(c3nc4ccccc4s3)CC2)c2ccccc12)C(F)(F)F`, the IC50 was 398 nM. In addition, the Emax under setting [1] was 88%.

For the compound `CC(=O)c1c(C)n(CCCN2CCCN(Cc3ccc(F)cc3)CC2)c2c(Br)cccc12`, the IC50 is 398 nM. The Emax under setting [1] worked out at 49%.

As for `COc1ccc2c(C(C)=O)cn(CCCN3CCC(Oc4ccc(Cl)cc4)CC3)c2c1`, the IC50 is 398 nM. Besides, the Emax under setting [1] amounted to 67%.

As for `CCCCC1CCN(CCCn2cc(C(C)=O)c3cc(OC)ccc32)CC1`, the IC50 is 398 nM. For the same compound, the Emax under setting [1] worked out at 118%.

As for `COc1cccc2c(C#N)cn(CCCN3CCN(c4ncc(C(F)(F)F)cc4Cl)CC3)c12`, the IC50 was 398 nM. The Emax under setting [1] turned out to be 97%.

For `CC(=O)c1cn(CC(C)CN2C3CCC2CC(OCC2CC2)C3)c2ccccc12` (centres unmarked), the IC50 was 398 nM. Also, the Emax under setting [1] is 65%.

For `CC(=O)c1cn(CCN2CCC(Cc3ccccc3)CC2)c2ccccc12`, the IC50 is 398 nM. For the same compound, under setting [1], the Emax stood at 77%.

As for `CC(=O)c1cn(CCCN2CCC(c3nc(-c4ccccc4)no3)CC2)c2c(Br)cccc12`, the IC50 is 501 nM. In addition, the Emax under setting [1] came out at 69%.

Take `CC(=O)c1cn(CCCN2CCN(CCOc3ccccc3)CC2)c2c(Br)cccc12`: the IC50 is 501 nM. Moreover, the Emax under setting [1] amounted to 91%.

With `COc1ccc2c(c1)c(C(C)=O)cn2CCCN1CCC(Oc2ccc(Cl)cc2)CC1`, the IC50 is 501 nM. Further, the Emax under setting [1] came out at 104%.

Take `COc1ccc2c(C(C)=O)cn(CCCN3C4CCC3CC(OC3=CC=C(Cl)CC3)C4)c2c1` (centres unmarked): the IC50 was 501 nM. Also, the Emax under setting [1] is 108%.

In the case of `CC(C)CNC(=O)c1cn(CCCN2CCC(Oc3ccc(F)cc3)CC2)c2ccccc12`, the IC50 was 501 nM and the Emax was 94%.

Regarding `O=C(c1cn(CCCN2C3CCC2CC(OCC2CC2)C3)c2ccccc12)C(F)(F)F` (centres unmarked), the IC50 is 501 nM. In addition, under setting [1], the Emax is 103%.

Turning to `CC(=O)c1cn(CC(C)CN2CCC(Oc3ccc(F)cc3)CC2)c2ccccc12` (centres unmarked), the IC50 was 501 nM. Further, the Emax under setting [1] came to 98%.

`CCCCC1CCN(CCCn2cc(C(=O)C(F)(F)F)c3ccccc32)CC1`: the IC50 is 501 nM. For the same compound, the Emax under setting [1] amounted to 74%.

In the case of `COc1ccc2c(c1)c(C(C)=O)cn2CCCN1CCN(C(C)c2ccccc2)CC1` (centres unmarked), the IC50 was 501 nM. For the same compound, the Emax under setting [1] worked out at 77%.

On to `CC(=O)c1cn(CCCN2C3CCC2CC(OCC2CC2)C3)c2cc(Br)ccc12` (centres unmarked), for which the IC50 was 501 nM. The Emax under setting [1] is 130%.

Turning to `COc1ccccc1C1CCN(CCCn2cc(C(C)=O)c3cccc(Cl)c32)CC1`, the IC50 is 501 nM. Further, the Emax under setting [1] came to 103%.

On to `CC(=O)c1cn(CCCN2C3CCC2CC(CC(=O)c2ccc(Cl)cc2)C3)c2c(Cl)cccc12` (centres unmarked), for which the IC50 is 501 nM. Besides, the Emax under setting [1] came out at 41%.

As for `COc1cccc2c(C(C)=O)cn(CCCN3CCN(CC4CCCO4)CC3)c12` (centres unmarked), the IC50 was 631 nM. Moreover, the Emax under setting [1] is 98%.

With `CCCOC1CCN(CC(C)Cn2cc(C(C)=O)c3ccccc32)CC1` (centres unmarked), the IC50 is 631 nM. Further, under setting [1], the Emax stood at 74%.

Turning to `CC(=O)c1cn(CCCN2CCC(c3nc(-c4cccnc4)no3)CC2)c2c(Cl)cccc12`, the IC50 is 631 nM. Further, the Emax under setting [1] worked out at 101%.

With `O=C(c1ccccc1)C1CCN(CCCn2cc(C(=O)C(F)(F)F)c3ccccc32)CC1`, the IC50 is 631 nM. Moreover, the Emax under setting [1] was 63%.

With `COc1ccccc1C1CCN(CCCn2cc(C(=O)CC(C)C)c3ccccc32)CC1`, the IC50 is 631 nM. The Emax under setting [1] is 100%.

With `CCCCC1CCN(CCCn2cc(C(C)=O)c3ccc(OC)cc32)CC1`, the IC50 is 631 nM. The Emax under setting [1] worked out at 63%.

With `COc1ccc2c(c1)c(C(C)=O)cn2CCCN1CCC(Oc2ccc(F)cc2)CC1`, the IC50 was 631 nM. Under setting [1], the Emax is 58%.

Turning to `CCCCC1CCN(CCCn2cc(CCC(C)=O)c3ccccc32)CC1`, the IC50 was 631 nM. The Emax under setting [1] was found to be 76%.

On to `CC(=O)c1cn(CCCN2CCN(CCOc3ccccc3)CC2)c2ncccc12`, for which the IC50 was 631 nM. The Emax under setting [1] was 81%.

Consider `CC(=O)c1cn(CCCN2C3CCC2CC(Oc2ccccc2Cl)C3)c2c(C)cccc12` (centres unmarked), for which the IC50 was 794 nM. In addition, under setting [1], the Emax was found to be 101%.

Take `CCCCC(=O)c1cn(CCCN2CCC(C(=O)c3ccccc3)CC2)c2ccc(OC)cc12`: the IC50 was 794 nM and the Emax worked out at 98%.

For `CCC(=O)c1cn(CCCN2CCC(Oc3ccc(F)cc3)CC2)c2ccccc12`, the IC50 was 794 nM. Also, the Emax under setting [1] was found to be 90%.

As to `COc1ccc2c(C(C)=O)cn(CCCN3CCC(C(=O)c4ccccc4)CC3)c2c1`, the IC50 is 794 nM. For the same compound, under setting [1], the Emax was 66%.

On to `O=C(c1cn(CCCN2CCC(Oc3ccc(F)cc3)CC2)c2ccccc12)C(F)(F)F`, for which the IC50 is 794 nM. Moreover, under setting [1], the Emax worked out at 75%.

As to `CC(=O)c1cn(CC(C)CN2CCN(C(C)c3ccccc3)CC2)c2ccccc12` (centres unmarked), the IC50 was 1000 nM. The Emax under setting [1] is 35%.

For `CCCCC1CCN(CCCn2cc(C(=O)CC)c3ccccc32)CC1`, the IC50 is 1000 nM. Moreover, the Emax under setting [1] came to 92%.

Regarding `COc1ccc2[nH]c3c(c2c1)CCN(CCCn1cc(C(=O)CC(C)C)c2ccccc21)C3`, the IC50 was 1000 nM and the Emax was determined as 123%.

Regarding `COc1ccc2c(c1)c(C(C)=O)cn2CCCN1CCC(C(=O)c2ccccc2)CC1`, the IC50 was 1000 nM. Further, under setting [1], the Emax is 72%.

Take `COc1ccc2c(c1)c(C(C)=O)cn2CCCN1CCC(Oc2ccccc2Cl)CC1`: the IC50 is 1000 nM. Moreover, the Emax under setting [1] came out at 95%.

With `COc1cccc2c(C(C)=O)cn(CCCN3CCC4CCCCC4C3)c12` (centres unmarked), the IC50 was 1000 nM. The Emax under setting [1] is 69%.

As for `CC(=O)c1cn(CCCN2CCCC(Oc3ccc(Cl)cc3)C2)c2c(Br)cccc12` (centres unmarked), the IC50 is 1260 nM. Under setting [1], the Emax came to 46%.

Consider `CC(=O)CCc1cn(CCCN2CCC(Oc3ccc(F)cc3)CC2)c2ccccc12`, for which the IC50 is 1260 nM. Under setting [1], the Emax is 80%.

In the case of `CCCCC(=O)c1cn(CCCN2CCN(C(C)c3ccccc3)CC2)c2ccc(OC)cc12` (centres unmarked), the IC50 is 1260 nM. Also, under setting [1], the Emax worked out at 81%.

Consider `COc1ccc2c(c1)c(C(C)=O)cn2CCCN1C2CCC1CC(Oc1ccc(Cl)cc1)C2` (centres unmarked), for which the IC50 is 1260 nM. Also, under setting [1], the Emax was determined as 105%.

`CCCOC1CCN(CCCn2cc(C(C)=O)c3ccc(OC)cc32)CC1`: the IC50 was 1260 nM. The Emax under setting [1] turned out to be 61%.

`CC(=O)c1cn(CCCN2CCC(Oc3ccc(Cl)cc3)CC2)c2cc(Br)ccc12`: the IC50 is 1260 nM. Moreover, the Emax under setting [1] turned out to be 74%.

As for `CC(=O)c1c(C)n(CCCN2CCN(CCOc3ccccc3)CC2)c2c(Br)cccc12`, the IC50 is 1260 nM. Also, the Emax under setting [1] was determined as 57%.

For the compound `CC(=O)c1cn(CCCN2CCN(C(C)c3ccccc3)CC2)c2ccc(Br)cc12` (centres unmarked), the IC50 was 1260 nM. The Emax under setting [1] turned out to be 72%.

`O=C(c1cn(CCCN2CCC(Oc3ccc(Cl)cc3)CC2)c2ccccc12)C(F)(F)F`: the IC50 was 1580 nM. Also, the Emax under setting [1] was found to be 77%.

In the case of `CCC(=O)c1cn(CCCN2CCC(Cc3ccccc3)CC2)c2ccccc12`, the IC50 was 1580 nM. The Emax under setting [1] was 109%.

On to `CC(C)CC(=O)c1cn(CCCN2CCC(Oc3ccccc3Cl)CC2)c2ccccc12`, for which the IC50 was 1580 nM. The Emax under setting [1] was 96%.

For the compound `COc1ccccc1C1CCN(CCCn2cc(C(=O)C(F)(F)F)c3ccccc32)CC1`, the IC50 was 1580 nM. Moreover, the Emax under setting [1] stood at 82%.

`CCCCC1CCN(CC(C)Cn2c(=O)sc3ccccc32)CC1` (centres unmarked): the IC50 is 2000 nM. Moreover, under setting [1], the Emax came out at 84%.

As to `CCCCC1CCN(CC(C)Cn2cc(C(C)=O)c3ccccc32)CC1` (centres unmarked), the IC50 is 2000 nM. In addition, under setting [1], the Emax is 76%.

Regarding `COc1ccccc1C1CCN(CCCCn2cc(C(C)=O)c3ccccc32)CC1`, the IC50 is 2000 nM. The Emax under setting [1] was found to be 58%.

In the case of `CC(=O)c1cn(CCCCN2CCN(C(C)c3ccccc3)CC2)c2ccccc12` (centres unmarked), the IC50 was 2000 nM. Besides, under setting [1], the Emax is 69%.

With `O=C(c1cn(CCCN2CCC(Oc3ccccc3Cl)CC2)c2ccccc12)C(F)(F)F`, the IC50 is 2000 nM. The Emax under setting [1] was 81%.

`COc1ccc2c(c1)c(C(C)=O)cn2CCCN1CCC(c2ccccc2OC)CC1`: the IC50 was 2000 nM. For the same compound, the Emax under setting [1] worked out at 66%.

As for `CC(=O)CCc1cn(CCCN2CCN(C(C)c3ccccc3)CC2)c2ccccc12` (centres unmarked), the IC50 is 2000 nM. Under setting [1], the Emax is 46%.

Consider `CC(C)CC(=O)c1cn(CCCN2CCC(C(=O)c3ccccc3)CC2)c2ccccc12`, for which the IC50 was 2000 nM. The Emax under setting [1] came out at 67%.

Take `CC(=O)c1cn(CCCN2CCC(Oc3ccc(Cl)cc3)CC2)c2c(Cl)cccc12`: the IC50 is 2000 nM. Besides, the Emax under setting [1] was 107%.

Turning to `CCCOC1CCN(CC(C)Cn2c(=O)sc3ccccc32)CC1` (centres unmarked), the IC50 is 2510 nM. Further, the Emax under setting [1] came to 71%.

Consider `COc1cccc2c(C(C)=O)cn(CCCN3CCC(N(C)C(C)=O)C3)c12` (centres unmarked), for which the IC50 is 2510 nM. Besides, the Emax under setting [1] amounted to 60%.

With `CCC(=O)c1cn(CCCN2C3CCC2CC(OCC2CC2)C3)c2ccccc12` (centres unmarked), the IC50 was 2510 nM. In addition, under setting [1], the Emax was found to be 120%.
